Laboratory results: paper PMC7176092, “Development of the first in vivo GPR17 ligand through an iterative drug discovery pipeline: A novel disease-modifying strategy for multiple sclerosis” (PLoS ONE, 2020)
Where “and” joins values, the source holds several entries; their conditions need not be identical. Equal values may be shown once. Read-outs that look alike come from different tables or passages of the source.

Tests used:
[1] = biological target: T1, CCR3 (Homo sapiens, UniProt P51677); experiment: Cellular functional assay CCR3
T1 sequence (P51677 1-355): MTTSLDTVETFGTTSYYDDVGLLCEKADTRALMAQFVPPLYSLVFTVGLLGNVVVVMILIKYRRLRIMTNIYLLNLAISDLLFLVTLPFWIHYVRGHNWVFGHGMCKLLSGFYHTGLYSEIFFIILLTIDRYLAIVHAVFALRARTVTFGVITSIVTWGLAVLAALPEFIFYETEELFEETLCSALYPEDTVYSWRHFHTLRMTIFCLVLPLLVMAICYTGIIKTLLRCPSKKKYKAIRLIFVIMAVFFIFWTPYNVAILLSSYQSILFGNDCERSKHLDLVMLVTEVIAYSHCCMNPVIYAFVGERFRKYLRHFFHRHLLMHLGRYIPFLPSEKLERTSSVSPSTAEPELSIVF

[2] = biological target: T2, M1 (Homo sapiens, UniProt P11229); experiment: Binding assay M1; conditions: 100 nM
T2 construct: Eurofins Cerep (external service)
T2 sequence (P11229 1-460): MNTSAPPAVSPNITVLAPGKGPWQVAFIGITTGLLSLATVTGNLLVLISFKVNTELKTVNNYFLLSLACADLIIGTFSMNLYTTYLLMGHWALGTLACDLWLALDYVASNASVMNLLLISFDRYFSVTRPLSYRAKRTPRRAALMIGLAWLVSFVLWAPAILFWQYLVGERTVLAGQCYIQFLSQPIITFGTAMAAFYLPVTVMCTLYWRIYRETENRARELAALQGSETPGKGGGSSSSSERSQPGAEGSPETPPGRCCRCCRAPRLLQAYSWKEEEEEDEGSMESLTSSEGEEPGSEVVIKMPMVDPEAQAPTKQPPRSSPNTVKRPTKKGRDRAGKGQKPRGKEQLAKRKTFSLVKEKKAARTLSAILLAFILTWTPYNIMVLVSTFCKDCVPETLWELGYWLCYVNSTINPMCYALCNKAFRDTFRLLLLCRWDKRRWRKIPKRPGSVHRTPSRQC

[3] = biological target: T3, ADR2 (Homo sapiens, UniProt P07550); experiment: Binding assay ADR2 (reference ICI 118551); conditions: 100 nM
T3 construct: Eurofins Cerep (external service)
T3 sequence (P07550 whole entry): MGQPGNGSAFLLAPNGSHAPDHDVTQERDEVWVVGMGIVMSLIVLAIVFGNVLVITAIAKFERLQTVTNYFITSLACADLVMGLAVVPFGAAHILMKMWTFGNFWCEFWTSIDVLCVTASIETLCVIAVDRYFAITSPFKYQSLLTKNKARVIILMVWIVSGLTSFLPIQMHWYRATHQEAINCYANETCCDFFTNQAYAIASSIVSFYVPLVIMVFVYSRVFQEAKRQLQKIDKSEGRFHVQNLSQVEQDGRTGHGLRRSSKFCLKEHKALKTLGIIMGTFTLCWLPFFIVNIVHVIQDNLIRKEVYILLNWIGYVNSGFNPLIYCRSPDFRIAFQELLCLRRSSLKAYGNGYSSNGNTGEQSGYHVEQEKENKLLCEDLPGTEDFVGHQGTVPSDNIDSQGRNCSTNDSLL

[4] = biological target: T4, CCR6 (Homo sapiens, UniProt P51684); experiment: Cellular functional assay CCR6
T4 sequence (P51684 1-374): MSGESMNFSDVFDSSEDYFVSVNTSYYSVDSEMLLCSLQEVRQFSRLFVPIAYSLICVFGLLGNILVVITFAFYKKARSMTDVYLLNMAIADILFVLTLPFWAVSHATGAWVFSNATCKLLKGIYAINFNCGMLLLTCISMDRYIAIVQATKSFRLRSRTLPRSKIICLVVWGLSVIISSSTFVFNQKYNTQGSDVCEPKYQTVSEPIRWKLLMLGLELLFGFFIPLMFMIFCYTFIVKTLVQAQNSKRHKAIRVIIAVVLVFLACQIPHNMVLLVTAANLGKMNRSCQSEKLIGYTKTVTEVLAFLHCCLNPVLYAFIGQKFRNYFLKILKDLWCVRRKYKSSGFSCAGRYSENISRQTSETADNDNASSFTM

[5] = In vivo mouse DMPK study, single 1 mg/kg subcutaneous dose
Description: In vivo DMPK studies were performed as an external service by Aptuit (Verona, Italy) according to standard procedures.
Two compounds were tested in a single dose pharmacokinetic (PK) study in mouse, in which a 1 mg/kg single dose solution (15% Ethanol, 85% PEG400) was administered by subcutaneous injection to naïve CD1 male mice from accredited supplier (n = 3), weighed prior to dosing. Blood samples were collected for 8 time-points (0.25, 0.50, 1, 2, 4, 6, 8, 24 hours).
Plasma samples were prepared and diluted according standard in-house procedures and stored at approximately -20°C, pending analysis. Briefly, blood samples were collected into tubes containing anticoagulant (K3EDTA), stored on ice and centrifuged to prepare plasma within 2 hours of collection. Plasma samples were diluted in Hepes Buffer and deproteinised using CH3CN containing rolipram as internal reference compound for positive ion mode, according standard procedure (20 ng/ml). After vortexing and centrifugation (3000 rpm per 10 min), sample supernatants were transferred in 96 well plate and diluted with water for analysis.
Blood concentrations of the tested compounds and their metabolites were detected through Liquid Chromatography-tandem Mass Spectrometry (QTRAP® 4000 LC-MS/MS System, Sciex). The results for each test compound in plasma were subjected to non-compartmental PK analysis using WinNonlin Phoenix v.6.3 for generation of appropriate PK parameters, reported along with graphical representation of the mean plasma concentration profiles over time.
At 24 hours, animals were sacrificed, and brains were collected and processed for measuring compound concentrations through mass spectrometry.

[6] = antagonist effect, 100 nM, single replicates 1st and 2nd, 0.1 µM
[7] = read-out: % Inhibition of control agonist response
[8] = read-out: Agonist Response (% of Control), Mean, antagonist effect, 100 nM, mean of 2
[9] = read-out: Agonist Response (% of Control), antagonist effect, 100 nM, single replicates 1st and 2nd
[10] = mean of 2, read-out: % Of control specific binding, Mean
[11] = read-out: % Inhibition of control specific binding
[12] = single replicates 1 and 2, 0.1 µM
[13] = single replicates 1 and 2, read-out: % Of control specific binding
[14] = mouse, sc, plasma, 1 mg/kg s.c. single dose, CD1 male mice

## Cc1ccc(-c2nnc(SCC(=O)Nc3nccs3)[nH]2)cc1 [Compound 9]
[1]; [6]
  Agonist Response (% of Control): 121.2%
[1]; [7]
  inhibition at 0.1 µM: -0.9%
[1]; [8]
  activity at 0.1 µM: 118%
[1]; [9]
  activity at 0.1 µM: 116%
[2]; [10]
  remaining activity at 0.1 µM: 108%
[2]; [11]
  inhibition at 0.1 µM: -8%
[2]; [12]
  % Of control specific binding: 110.2%
[2]; [13]
  remaining activity at 0.1 µM: 105%
[3]; [10]
  remaining activity at 0.1 µM: 102%
[3]; [11]
  inhibition at 0.1 µM: -2%
[3]; [12]
  % Of control specific binding: 108.1%
[3]; [13]
  remaining activity at 0.1 µM: 95.8%
[4]; [6]
  Agonist Response (% of Control): 105.9%
[4]; [7]
  inhibition at 0.1 µM: -0.3%
[4]; [8]
  activity at 0.1 µM: 106%
[4]; [9]
  activity at 0.1 µM: 105%
[5]; 0.50 h, 1 mg/kg s.c., 1 mg/kg
  Plasma concentration, individual mice: 71.7 ng/mL and 98.3 ng/mL and 30.8 ng/mL
[5]; 1.00 h, 1 mg/kg s.c., 1 mg/kg
  Plasma concentration, individual mice: 14.3 ng/mL and 38.5 ng/mL and 76.3 ng/mL
[5]; 2.00 h, 1 mg/kg s.c., 1 mg/kg
  Plasma concentration, individual mice: 5.6 ng/mL and 10.3 ng/mL and 29.8 ng/mL
[5]; 4.00 h, 1 mg/kg s.c., 1 mg/kg
  Plasma concentration, individual mice: 2.6 ng/mL
[5]; male, CD1, mouse, plasma, sc, 1 mg/kg, 0.50 h, 1 mg/kg s.c., n=3 mice, read-out: Plasma concentration, Mean
  concentration at 0.5 h: 66.9 ng/mL
[5]; male, CD1, mouse, plasma, sc, 1 mg/kg, 1.00 h, 1 mg/kg s.c., n=3 mice, read-out: Plasma concentration, Mean
  concentration at 1 h: 43 ng/mL
[5]; male, CD1, mouse, plasma, sc, 1 mg/kg, 2.00 h, 1 mg/kg s.c., n=3 mice
  concentration at 2 h: 15.2 ng/mL
[5]; male, CD1, mouse, plasma, sc, 1 mg/kg, 4.00 h, 1 mg/kg s.c., read-out: Plasma concentration, Mean
  concentration at 4 h: 2.8 ng/mL
[5]; male, CD1, mouse, plasma, sc, 1 mg/kg, 4.00 h, 1 mg/kg s.c., read-out: Plasma concentration, individual mice
  concentration at 4 h: 2.9 ng/mL
[5]; male, CD1, mouse, plasma, sc, 1 mg/kg, plasma, 1 mg/kg s.c. single dose, CD1 male mice, read-out: Clast
  concentration at 4 h: 4.81 ng/mL
[5]; [14]
  AUC(0-t): 85.8 ng·h/mL
  Cmax: 72.3 ng/mL
  Tmax: 30 min
  half-life: 65.4 min
[5]; plasma after s.c. administration in mice
  Metabolites found in vivo: no detectable metabolites
[5]; plasma, 1 mg/kg s.c. single dose, CD1 male mice
  Tlast: 4.00 h
